This assay concerns Plutella xylostella. Put plainly: whole plant or invertebrate. The class given is in vivo. The note with it: foliar, cabbage leaf dip, second instar larvae, dead and moribund combined, 72 h after release. How it is done: Test Solutions were Prepared According to the Procedure Described Herein Below (500 PPM):
• 1. Eppendorf Vortex mixer (ThermoMixer C) and 1.5 mL Eppendorf tubes • 2. Zirconia (Zirconium-Yttrium) beads having diameter of 0.8 to 1.0 mm • 3. Microscope • 4. Beaker 100 mL • 5. Micro-pipette Reagents: • 1. Surfactant Solution • 2. De-mineralized (DM) Water • 1. Weigh 10 mg of the compound of the present invention to be tested in an Eppendorf Tube. • 2. Add 200 mg of the Surfactant Solution into the tube. • 3. Add 600 mg of Zirconia beads into the above mixture. • 4. Fix the tube in Eppendorf Vortex mixer and start vortexing at 2000 rpm. • 5. Mix on Vortex mixer for 30 minutes. After 30 minutes, observe the sample over a microscope at 400× resolution. • 6. If the Maximum particle size is more than 5 μm or average particle size is more than 2 μm or the particle size distribution is uneven, continue vortexing for another 30 minutes and again check the particle size using the microscope. Continue till the average particle size is below 2 microns. • 7. When the required particle size is achieved, add 1.0 mL DM water into the tube, close the cap, shake the tube thoroughly and transfer the contents, along with the beads, into a beaker. • 8. To rinse the tube, add another 1.0 mL of DM water into the tube, close the cap, shake well and transfer this into the same beaker. • 9. Repeat Step no. 8 one more time so that the tube is rinsed well and the compound of the present invention to be tested is transferred to the beaker. • 10. Add 16.8 mL of DM water into the beaker and stir well. • 11. The homogeneous dispersion can then be decanted into a glass vial, immediately, to separate the Zirconia beads. • 12. Immediately use this sample for biological testing. • 13. Further dilutions can be prepared by taking appropriate quantity of the aliquot of Step 10, immediately after stirring, and diluting as per requirement. The sample solution must be well mixed just before biological testing.
Leaf dip method was used for screening, wherein the required quantity of the compounds were weighed and dissolved in the test solution into the tube and vortex at 2000 rpm with Zirconia beads for 90 min for proper mixing, then mixed with 0.01% Triton-X solution to get the desired test concentration. Cabbage leaves were dipped in the solution for 10 seconds, shade dried for 20 min and then transferred to bioassay trays. Single second instar larva was released into each cell and the tray was covered with lid. The bio-assay trays were kept under laboratory conditions at a temperature of 25° C. and relative humidity of 70%. Observations on dead, moribund and live larvae were recorded at 72 h after the release. Percent mortality was calculated by combining dead and moribund larvae. The following compound num.

Here are results for 23 compounds from patent publication US12024510B2, “Pyrazolopyridine-diamides, their use as insecticide and processes for preparing the same” (PI INDUSTRIES LTD., priority 2017, dated 2024).

Consider `O=C(Nc1c(Br)cc2ccnn2c1C(=O)NC1CONC1=O)c1cc(C(F)(F)F)nn1-c1ncccc1Cl` (centres unmarked) [Compound 129, 5-bromo-6-(1-(3-chloropyridin-2-yl)-3-(trifluoromethyl)-1H-pyrazole-5-carboxamido)-N-(3-oxoisoxazolidin-4-yl)pyrazolo[1,5-a]pyridine-7-carboxamide], for which the mortality at 300 ppm was more than 70%.

With `CNC(=O)c1c(NC(=O)c2cc(C(F)(F)F)nn2-c2ncccc2Cl)c(Br)cc2ccnn12` [Compound 104, 5-bromo-6-(1-(3-chloropyridin-2-yl)-3-(trifluoromethyl)-1H-pyrazole-5-carboxamido)-N-methylpyrazolo[1,5-a]pyridine-7-carboxamide], the mortality at 300 ppm is more than 70%.

As for `Cc1cc2ccnn2c(C(=O)NC2CC2)c1NC(=O)c1cc(Oc2cc(C(F)(F)F)nn2C)nn1-c1ncccc1Cl` [Compound 79, 6-(1-(3-chloropyridin-2-yl)-3-((1-methyl-3-(trifluoromethyl)-1H-pyrazol-5-yl)oxy)-1H-pyrazole-5-carboxamido)-N-cyclopropyl-5-methylpyrazolo[1,5-a]pyridine-7-carboxamide], the mortality at 300 ppm is more than 70%.

For `C#CCNC(=O)c1c(NC(=O)c2cc(OCC(F)(F)F)nn2-c2ncccc2Cl)c(C)cc2ccnn12` [Compound 48, 6-(1-(3-chloropyridin-2-yl)-3-(2,2,2-trifluoroethoxy)-1H-pyrazole-5-carboxamido)-5-methyl-N-(prop-2-yn-1-yl)pyrazolo[1,5-a]pyridine-7-carboxamide], the mortality at 300 ppm is more than 70%.

Take `Cc1cc2ccnn2c(C(=O)NOC(C)C)c1NC(=O)c1cc(Br)nn1-c1ncccc1Cl` [Compound 105, 6-(3-bromo-1-(3-chloropyridin-2-yl)-1H-pyrazole-5-carboxamido)-N-isopropoxy-5-methylpyrazolo[1,5-a]pyridine-7-carboxamide]: the mortality at 300 ppm was more than 70%.

Turning to `CCNC(=O)c1c(NC(=O)c2cc(Oc3cc(C(F)(F)F)nn3C)nn2-c2ncccc2Cl)c(C)cc2ccnn12` [Compound 70, 6-(1-(3-chloropyridin-2-yl)-3-((1-methyl-3-(trifluoromethyl)-1H-pyrazol-5-yl)oxy)-1H-pyrazole-5-carboxamido)-N-ethyl-5-methylpyrazolo[1,5-a]pyridine-7-carboxamide], the mortality at 300 ppm is more than 70%.

Turning to `Cc1cc2ccnn2c(C(=O)N2CC(F)(F)C2)c1NC(=O)c1cc(Br)nn1-c1ncccc1Cl` [Compound 23, 3-bromo-1-(3-chloropyridin-2-yl)-N-(7-(3,3-difluoroazetidine-1-carbonyl)-5-methylpyrazolo[1,5-a]pyridin-6-yl)-1H-pyrazole-5-carboxamide], the mortality at 300 ppm was more than 70%.

For the compound `COCCNC(=O)c1c(NC(=O)c2cc(Br)nn2-c2ncccc2Cl)c(Br)cc2ccnn12` [Compound 88, 5-bromo-6-(3-bromo-1-(3-chloropyridin-2-yl)-1H-pyrazole-5-carboxamido)-N-(2-methoxyethyl)pyrazolo[1,5-a]pyridine-7-carboxamide], the mortality at 300 ppm is more than 70%.

Consider `CCCNC(=O)c1c(NC(=O)c2cc(OCC(F)(F)F)nn2-c2ncccc2Cl)c(C)cc2ccnn12` [Compound 11, 6-(1-(3-chloropyridin-2-yl)-3-(2,2,2-trifluoroethoxy)-1H-pyrazole-5-carboxamido)-5-methyl-N-propylpyrazolo[1,5-a]pyridine-7-carboxamide], for which the mortality at 300 ppm was more than 70%.

For `CCC(COC)NC(=O)c1c(NC(=O)c2cc(OC)nn2-c2ncccc2Cl)c(C)cc2ccnn12` (centres unmarked) [Compound 205, 6-(1-(3-chloropyridin-2-yl)-3-methoxy-1H-pyrazole-5-carboxamido)-N-(1-methoxybutan-2-yl)-5-methylpyrazolo[1,5-a]pyridine-7-carboxamide], the mortality at 300 ppm was more than 70%.

Regarding `Cc1cc2ccnn2c(C(=O)NC2CS(=O)(=O)C2)c1NC(=O)c1cc(Br)nn1-c1ncccc1Cl` [Compound 208, 6-(3-bromo-1-(3-chloropyridin-2-yl)-1H-pyrazole-5-carboxamido)-N-(1,1-dioxidothietan-3-yl)-5-methylpyrazolo[1,5-a]pyridine-7-carboxamide], the mortality at 300 ppm was more than 70%.

Consider `COc1cc(C(=O)Nc2c(C)cc3ccnn3c2C(=O)NC(C)C(C)C)n(-c2ncccc2Cl)n1` (centres unmarked) [Compound 212, 6-(1-(3-chloropyridin-2-yl)-3-methoxy-1H-pyrazole-5-carboxamido)-5-methyl-N-(3-methylbutan-2-yl)pyrazolo[1,5-a]pyridine-7-carboxamide], for which the mortality at 300 ppm is more than 70%.

On to `COc1cc(C(=O)Nc2c(C)cc3ccnn3c2C(=O)NC(C)CCC(C)C)n(-c2ncccc2Cl)n1` (centres unmarked) [Compound 210, 6-(1-(3-chloropyridin-2-yl)-3-methoxy-1H-pyrazole-5-carboxamido)-5-methyl-N-(5-methylhexan-2-yl)pyrazolo[1,5-a]pyridine-7-carboxamide], for which the mortality at 300 ppm was more than 70%.

As for `CCC(COC)NC(=O)c1c(NC(=O)c2cc(Br)nn2-c2ncccc2Cl)c(C)cc2ccnn12` (centres unmarked) [Compound 192, 6-(3-bromo-1-(3-chloropyridin-2-yl)-1H-pyrazole-5-carboxamido)-N-(1-methoxybutan-2-yl)-5-methylpyrazolo[1,5-a]pyridine-7-carboxamide], the mortality at 300 ppm is more than 70%.

`CNC(=O)c1c(NC(=O)c2cc(Oc3cc(C(F)(F)F)nn3C)nn2-c2ncccc2Cl)c(C)cc2ccnn12` [Compound 69, 6-(1-(3-chloropyridin-2-yl)-3-((1-methyl-3-(trifluoromethyl)-1H-pyrazol-5-yl)oxy)-1H-pyrazole-5-carboxamido)-N,5-dimethylpyrazolo[1,5-a]pyridine-7-carboxamide]: the mortality at 300 ppm was more than 70%.

With `Cc1cc2ccnn2c(C(=O)NCC2CC2)c1NC(=O)c1cc(Oc2cc(C(F)(F)F)nn2C)nn1-c1ncccc1Cl` [Compound 80, 6-(1-(3-chloropyridin-2-yl)-3-((1-methyl-3-(trifluoromethyl)-1H-pyrazol-5-yl)oxy)-1H-pyrazole-5-carboxamido)-N-(cyclopropylmethyl)-5-methylpyrazolo[1,5-a]pyridine-7-carboxamide], the mortality at 300 ppm is more than 70%.

Regarding `COc1cc(C(=O)Nc2c(Br)cc3ccnn3c2C(=O)NC2(C)CC2)n(-c2ncccc2Cl)n1` [Compound 223, 5-bromo-6-(1-(3-chloropyridin-2-yl)-3-methoxy-1H-pyrazole-5-carboxamido)-N-(1-methylcyclopropyl)pyrazolo[1,5-a]pyridine-7-carboxamide], the mortality at 300 ppm is more than 70%.

Take `CCNC(=O)c1c(NC(=O)c2cc(OC3CSC3)nn2-c2ncccc2Cl)c(C)cc2ccnn12` [Compound 144, 6-(1-(3-chloropyridin-2-yl)-3-(thietan-3-yloxy)-1H-pyrazole-5-carboxamido)-N-ethyl-5-methylpyrazolo[1,5-a]pyridine-7-carboxamide]: the mortality at 300 ppm was more than 70%.

`CCONC(=O)c1c(NC(=O)c2cc(OC)nn2-c2ncccc2Cl)c(C)cc2ccnn12` [Compound 112, 6-(1-(3-chloropyridin-2-yl)-3-methoxy-1H-pyrazole-5-carboxamido)-N-ethoxy-5-methylpyrazolo[1,5-a]pyridine-7-carboxamide]: the mortality at 300 ppm was more than 70%.

Turning to `COc1cc(C(=O)Nc2c(C)cc3ccnn3c2C(=O)NOC(C)C)n(-c2ncccc2Cl)n1` [Compound 113, 6-(1-(3-chloropyridin-2-yl)-3-methoxy-1H-pyrazole-5-carboxamido)-N-isopropoxy-5-methylpyrazolo[1,5-a]pyridine-7-carboxamide], the mortality at 300 ppm was more than 70%.

In the case of `Cc1cc2ccnn2c(C(=O)NC2CONC2=O)c1NC(=O)c1cc(C(F)(F)F)nn1-c1ncccc1Cl` (centres unmarked) [Compound 128, 6-(1-(3-chloropyridin-2-yl)-3-(trifluoromethyl)-1H-pyrazole-5-carboxamido)-5-methyl-N-(3-oxoisoxazolidin-4-yl)pyrazolo[1,5-a]pyridine-7-carboxamide], the mortality at 300 ppm was more than 70%.

In the case of `CCC(CC)NC(=O)c1c(NC(=O)c2cc(Br)nn2-c2ncccc2Cl)c(C)cc2ccnn12` [Compound 185, 6-(3-bromo-1-(3-chloropyridin-2-yl)-1H-pyrazole-5-carboxamido)-5-methyl-N-(pentan-3-yl)pyrazolo[1,5-a]pyridine-7-carboxamide], the mortality at 300 ppm was more than 70%.

For the compound `COc1cc(C(=O)Nc2c(Cl)cc3ccnn3c2C(=O)NCC#N)n(-c2ncccc2Cl)n1` [Compound 149, 5-chloro-6-(1-(3-chloropyridin-2-yl)-3-methoxy-1H-pyrazole-5-carboxamido)-N-(cyanomethyl)pyrazolo[1,5-a]pyridine-7-carboxamide], the mortality at 300 ppm is more than 70%.

As usually defined, the mortality is the percentage killed.
